Legend:
[1] = target: γ-secretase enzyme complex (Homo sapiens, UniProt P49768)
Method: Multiple in vitro assays were utilized to characterize the potency and selectivity of compound (1). The primary in vitro assay uses cell-free membrane preparations to provide the -secretase enzyme complex as an in vitro assay. […] The cellular processing of APP is measured using an ELISA-based readout. HEK293 cells have been engineered to over-express APP. Processing is measured by an ELISA-based quantitation of the A 1-40 secretase product. Cellular Notch inhibitory activity is measured using HEK293 cell line stably expressing a truncated human Notch 1 fused in its intracellular domain to a VP16/[…] transcriptional activator, which drives a firefly luciferase gene Inhibition of Notch processing produces a reduction in luciferase reporter activity as measured by its chemo luminescence.

[2] = system: AsPC1 human pancreatic carcinoma xenografts; assay: Antitumor efficacy in AsPC1 pancreatic xenografts in nude mice; format: in vivo
Method: Female (athymic nu/nu) nude mice were obtained from Charles River Laboratories (Wilmington, Mass.), while female SCID-beige mice were purchased from Taconic (Germantown, N.Y.). Mice were used when they were approximately 8-12 weeks old (nudes) or 8-10 weeks old (SCID-beige), and weighed approximately 23-25 grams. The health of all animals was determined daily by gross observation of experimental animals and by the analyses of blood samples of sentinel animals that were housed on the shared shelf racks. All animals were allowed to acclimate and recover from any shipping related stress for a minimum of 72 hours prior to experimental use. Autoclaved water and irradiated food [5058-ms Pico chow (mouse) Purina, Richmond, Ind.] were provided ad libitum, and the animals were maintained on a 12 hour light and dark cycle. Cages, bedding and water bottles were autoclaved before use and were changed weekly. MiaPaca2, AsPC1 and BxPC3 human pancreatic carcinoma cells were purchased from ATCC (Manassas, Va.). BxPC3 and AsPC1 cells were grown in RPMI medium and MiaPaca2 cells were grown in Dulbecco's Modified Essential Medium (DMEM). All culture media were supplemented with 10% (v/v) FBS and 1% (v/v) […]. […] SCID-biege mice were implanted se with 5×10^6 BxPC3 cells in a 1:1 mixture of matrigel:PBS in a volume of 0.2 ml per mouse in the right hind flank on May 22, 2007. […] Formulated compound and vehicle were stored at 4° C. and prepared weekly. The suspension was mixed vigorously prior to administration. Gemcitabine (Gemzar®, Eli Lilly and Company, Indianapolis, Ind., USA) was reconstituted with sterile saline to yield a stock solution of 38 mg/ml for the entire 3-4 week study. […] Nude mice implanted with MiaPaca2 or AsPC1 xenografts were randomized on day 17 and day 9 post cell implant, respectively. SCID-beige mice bearing BxPC3 xenografts were randomized 8 days post implant. […] Treatment for the MiaPaca2 study began on Feb. […] For the MiaPaca2 and AsPC1 studies, qd Compound (1) suspension or q3d gemcitabine treatment ended on day 37 post tumor cell implant, whereas for the BxPC3 study, qd Compound (1) suspension or q3d gemcitabine treatment ended on day 35 post tumor cell implant. For intermittent dosing of Compound (1) suspension in the AsPC1 study using the 7+/7− schedule×2 cycles, treatment ended on day 15, was reinitiated on day 23, and finally ended day 29. For intermittent dosing using the 3+/4− schedule×4 cycles, treatment ended on day 11, was reinitiated on day 16, ended day 18, was reinitiated on day 23, ended day 25, was reinitiated day 30, and finally ended on day 32. In the first combination group, daily Compound (1) was given simultaneously with q3d gemcitabine for a total of four weeks. For the remaining combination groups, Compound (1) and gemcitabine were given sequentially rather than simultaneously. In group 8 gemcitabine was dosed q3d during the 1st and 3rd weeks, whereas Compound (1) was given daily during the 2nd and 4th weeks only. In group 9, the order of compound dosing was reversed, with Compound (1) suspension given daily during the 1st and 3rd weeks, whereas gemcitabine was given q3d during the 2nd and 4th weeks. In group 10, gemcitabine was dosed q3d during the 1st and 2nd weeks, whereas Compound (1) was given daily during the 3rd and 4th weeks. In group 11, the order of compound dosing was reversed, with Compound (1) given daily during the 1st and 2nd weeks, and gemcitabine dosed q3d for the 3rd and 4th weeks. […]

## CC(C)(C(=O)NCC(F)(F)C(F)(F)F)C(=O)N[C@@H]1C(=O)Nc2ccccc2-c2ccccc21 [Compound (1), 2,2-Dimethyl-N—((S)-6-oxo-6,7-dihydro-5H-dibenzo[b,d]azepin-7-yl)-N′-(2,2,3,3,3-pentafluoro-propyl)-malonamide]
[1]
  IC50 in cellular and cell-free assays: low nanomolar range
[2]; 3 mg/kg po qd × 28 days, day 37
  % TGI: 49%
[2]; 10 mg/kg po qd × 28 days, day 37
  % TGI: 58%
[2]; 10 mg/kg po, 3+/4− × 4 cycles
  % TGI: 32%
[2]; 10 mg/kg po, 7+/7− × 2 cycles
  % TGI: 41%
